Experimental data published in PMC12299285, “Isolation and Identification of Secondary Metabolites in Rheum tataricum L.fil. Growing in Kazakhstan and Surveying of Its Anticancer Potential” (Molecules, 2025).
Like-named read-outs stand apart in the source and are kept apart here.

Tests used:
[1] = system: C33 A (HPV-negative human cervical cancer cell line); test: MTT cytotoxicity assay, C33 A cervical cancer cells; format: cell-based; conditions: read-out: Growth Inhibition of Cells (GI50 ± SEM) C33 A (HPV-Negative)
[2] = system: CaSki (HPV16-positive human cervical cancer cell line); test: MTT cytotoxicity assay, CaSki cervical cancer cells; format: cell-based; conditions: 48 h incubation, three independent experiments, read-out: Growth Inhibition of Cells (GI50 ± SEM) CaSki (HPV-16)
[3] = system: HeLa (HPV18-positive human cervical cancer cell line); test: MTT cytotoxicity assay, HeLa cervical cancer cells; format: cell-based; conditions: 48 h incubation, three independent experiments, read-out: Growth Inhibition of Cells (GI50 ± SEM) HeLa (HPV-18)
[4] = system: MCF-7 breast adenocarcinoma cells; test: MTT cytotoxicity assay, MCF-7 breast adenocarcinoma cells; format: cell-based, human; conditions: three independent experiments, read-out: Growth Inhibition of Cells (GI50 ± SEM) MCF-7
[5] = system: DU-145 prostate cancer cell line; test: MTT cytotoxicity assay, DU-145 prostate cancer cells; format: cell-based, human; conditions: three independent experiments, read-out: Growth Inhibition of Cells (GI50 ± SEM) DU-145
[6] = system: SNB-19 glioblastoma cell line; test: MTT cytotoxicity assay, SNB-19 glioblastoma cells; format: cell-based, human; conditions: three independent experiments, read-out: Growth Inhibition of Cells (GI50 ± SEM) SNB-19
[7] = system: T98G glioblastoma cell line; test: MTT cytotoxicity assay, T98G glioblastoma cells; format: cell-based, human; conditions: 48 h incubation, three independent experiments, read-out: Growth Inhibition of Cells (GI50 ± SEM) T98G
[8] = system: Normal epithelial VERO cells; test: MTT cytotoxicity assay, normal epithelial VERO cells (non-cancer control); format: cell-based, African green monkey; conditions: 48 h incubation, three independent experiments, read-out: Growth Inhibition of Cells (GI50 ± SEM) VERO
[9] = design: method as in PMID 21725818; conditions: mice; cited from earlier work
[10] = design: method as in PMID 21725818; conditions: rats; cited from earlier work
[11] = system: activated macrophages; design: method as in PMID 9810263; conditions: in vivo; cited from earlier work
[12] = Homo sapiens, MCF7, 48 h, 48 h incubation
[13] = Homo sapiens, DU-145, 48 h incubation
[14] = Homo sapiens, SNB-19, 48 h incubation
[15] = Chlorocebus sabaeus, Vero, 48 h
[16] = Homo sapiens, C-33-A, MTT, 48 h incubation, three independent experiments

| Compound | GI50 ([4]; 48 h incubation) [µM] | GI50 [8] [µM] | GI50 ([2]; Homo sapiens, Ca-Ski) [µM] | GI50 ([3]; Homo sapiens, HeLa) [µM] | GI50 [4, 12] [µM] | GI50 [5, 13] [µM] | GI50 [6, 14] [µM] | GI50 ([7]; Homo sapiens, T98G) [µM] | GI50 [8, 15] [µM] | further results |
| --- | --- | --- | --- | --- | --- | --- | --- | --- | --- | --- |
| 1-O-Galloyl-β-D-glucopyranose [Compound 6] | 31 ± 0.7 | > 100 |  |  |  |  |  |  |  | GI50 ([1]; MTT, 48 h incubation, three independent experiments): 27 ± 2.6 µM; GI50 [2]: 18 ± 1.4 µM; GI50 [3]: 29 ± 2.4 µM; GI50 ([5]; 48 h incubation): 67 ± 6.4 µM; GI50 ([6]; 48 h incubation): 26 ± 1.2 µM; GI50 [7]: 21 ± 0.8 µM |
| C[C@H](CCc1ccc(O)cc1)O[C@@H]1O[C@H](CO)[C@@H](O)[C@H](O)[C@H]1O [Compound 1, (R)-4-(4-Hydroxyphenyl)-2-butanol 2-β-D-glucopyranoside] |  | > 100 | 12 ± 0.7 | 16 ± 0.8 | 10 ± 1.8 | 21 ± 2.3 | 23 ± 4.1 | 29 ± 2.5 | > 83 | GI50 ([1]; Homo sapiens, C-33-A, 48 h): 27 ± 1.4 µM; analgesic actions [9]: significant analgesic actions; anti-inflammatory actions [10]: anti-inflammatory actions |
| C[C@@H](CCc1ccc(O)cc1)O[C@@H]1O[C@H](CO)[C@@H](O)[C@H](O)[C@H]1O [Compound 3, (S)-4-(4-Hydroxyphenyl)-2-butanol 2-β-D-glucopyranoside] |  |  |  |  |  |  |  |  |  | NO production by activated macrophages [11]: suppressed NO production |
| C[C@@H](O)CCc1ccc(O)cc1 [Compound 4, (R)-4-(4-Hydroxyphenyl)-2-butanol] |  | > 100 | 10 ± 0.6 | 29 ± 0.7 | 11 ± 1.4 | 21 ± 0.8 | 15 ± 0.9 | 18 ± 1.1 | > 83 | GI50 [1, 16]: 28 ± 0.5 µM |
| C[C@H](O)CCc1ccc(O)cc1 [Compound 5, (S)-4-(4-Hydroxyphenyl)-2-butanol] |  |  |  |  |  |  |  |  |  | NO production by activated macrophages [11]: suppressed NO production |
| CC(=O)CCc1ccc(O)cc1 [Compound 9, 4-(4-Hydroxyphenyl)butan-2-one] |  | > 100 | 20 ± 1.5 | 23 ± 3.7 | 21 ± 2.1 | 60 ± 1.7 | 33 ± 1.8 | 19 ± 0.9 | > 83 | GI50 [1, 16]: 19 ± 2.2 µM |
| COc1ccc(C=Cc2cc(O)cc(OC3OC(CO)C(O)C(O)C3O)c2)cc1 [Compound 11, 3,5-Dihydroxy-4′-methoxystilbene-3-O-β-D-glucopyranoside] | 8 ± 1.8 | 92 ± 7.9 |  | 17 ± 0.9 | 7 to 8 |  | 13 ± 1.1 | 18 ± 3.5 | > 83 |  |
| OC[C@H]1O[C@@H](Oc2ccc(/C=C/c3cc(O)cc(O)c3)cc2)[C@H](O)[C@@H](O)[C@@H]1O [Compound 12, (E)-resveratrol 4′-O-β-D-glucopyranoside] | 7 ± 1.2 | 98 ± 4.8 |  | 18 ± 1.6 | 7 to 8 |  | 9.2 ± 0.8 | 21 ± 1.7 | > 83 |  |
| COc1cccc2c1C(=O)c1c(O)c3c(c(O)c1C2=O)C[C@@](O)(C(=O)CO)C[C@@H]3O[C@H]1C[C@H](N)[C@H](O)[C@H](C)O1 [Doxorubicin, reference compound] |  |  | 10.1 ± 0.7 | 6.1 ± 0.7 |  | 15 ± 0.3 | 7.6 ± 0.7 | 13 ± 0.5 |  | GI50 ([4]; Homo sapiens, MCF7, 48 h incubation): 5.2 ± 0.8 µM; GI50 ([8]; Chlorocebus sabaeus, Vero): 8 ± 1.8 µM |
